Laboratory results reported in ChEMBL document CHEMBL6182863, “Discovery of novel rigid STING PROTAC degraders as potential therapeutics for acute kidney injury” (Eur J Med Chem, 2025).
In brackets after ≈: the same amount, converted by molar mass. Activity calls are given as the source filed them. The rule behind the calls is not given here.

Assays:
[1] = target: Protein cereblon/Stimulator of interferon genes protein (Homo sapiens, UniProt Q96SW2+Q86WV6); experiment: PROTAC activity at CRBN/STING in human THP-1 cells assessed as induction of STING degradation at 5 uM measured after 24 hrs by Western blotting analysis relative to control; format: cell-based
[2] = Water solubility of the compound at 2 mg by HPLC analysis; format: physicochemical
[3] = target: von Hippel-Lindau disease tumor suppressor/Stimulator of interferon genes protein (Homo sapiens, UniProt P40337+Q86WV6); experiment: PROTAC activity at VHL/STING (unknown origin); format: protein assay
[4] = Metabolic stability in human liver microsomes assessed as metabolic factor relative to control; format: ADME, Microsome
[5] = Metabolic stability in human liver microsomes assessed as intrinsic clearance per gram of protein; format: ADME, Microsome
[6] = Metabolic stability in human liver microsomes assessed as half life; format: ADME, Microsome

Protein cereblon/Stimulator of interferon genes protein, sequence (Q86WV6 whole entry, looked up): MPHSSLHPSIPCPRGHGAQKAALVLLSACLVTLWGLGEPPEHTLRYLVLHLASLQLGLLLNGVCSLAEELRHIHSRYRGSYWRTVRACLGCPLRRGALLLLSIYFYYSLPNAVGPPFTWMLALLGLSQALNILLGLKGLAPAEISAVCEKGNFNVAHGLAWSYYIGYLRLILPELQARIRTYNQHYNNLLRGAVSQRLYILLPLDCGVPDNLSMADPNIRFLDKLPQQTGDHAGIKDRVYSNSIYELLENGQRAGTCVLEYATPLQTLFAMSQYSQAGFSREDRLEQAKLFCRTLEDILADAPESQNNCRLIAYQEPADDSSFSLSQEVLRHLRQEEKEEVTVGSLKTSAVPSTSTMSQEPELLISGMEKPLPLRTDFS
Protein cereblon/Stimulator of interferon genes protein, sequence (Q96SW2 whole entry, looked up): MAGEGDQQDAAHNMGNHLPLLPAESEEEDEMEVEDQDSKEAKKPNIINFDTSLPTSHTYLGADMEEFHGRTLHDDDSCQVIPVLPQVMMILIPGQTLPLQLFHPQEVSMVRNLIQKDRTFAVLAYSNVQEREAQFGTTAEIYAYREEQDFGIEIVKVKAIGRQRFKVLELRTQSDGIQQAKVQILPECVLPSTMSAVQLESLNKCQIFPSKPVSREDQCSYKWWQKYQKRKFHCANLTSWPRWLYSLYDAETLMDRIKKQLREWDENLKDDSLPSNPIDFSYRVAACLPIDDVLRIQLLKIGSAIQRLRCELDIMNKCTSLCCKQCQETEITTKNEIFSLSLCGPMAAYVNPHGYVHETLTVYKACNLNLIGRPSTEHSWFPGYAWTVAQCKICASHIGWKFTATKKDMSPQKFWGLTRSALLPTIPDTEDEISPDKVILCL
von Hippel-Lindau disease tumor suppressor/Stimulator of interferon genes protein, sequence (P40337 whole entry): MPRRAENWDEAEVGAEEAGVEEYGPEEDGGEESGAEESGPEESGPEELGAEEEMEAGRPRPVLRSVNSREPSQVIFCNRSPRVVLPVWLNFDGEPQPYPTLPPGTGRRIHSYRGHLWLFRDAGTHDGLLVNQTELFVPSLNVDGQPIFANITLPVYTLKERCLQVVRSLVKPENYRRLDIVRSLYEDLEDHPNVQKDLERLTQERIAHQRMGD
von Hippel-Lindau disease tumor suppressor/Stimulator of interferon genes protein, sequence (Q86WV6 whole entry): as the sequence (Q86WV6 whole entry, looked up) above

| Structure (SMILES) | Activity [1] | other results |
| --- | --- | --- |
| O=C(/C=C/C(=O)N1CCN(CC2CCN(c3cccc4c3C(=O)N(C3CCC(=O)NC3=O)C4=O)CC2)CC1)Nc1ccc(NC(=O)c2ccc([N+](=O)[O-])o2)cc1 (stereo not drawn) | 43.6% |  |
| O=C(/C=C/C(=O)N1CCN(C2CCN(c3ccc4c(c3)C(=O)N(C3CCC(=O)NC3=O)C4=O)C2)CC1)Nc1ccc(NC(=O)c2ccc([N+](=O)[O-])o2)cc1 (stereo not drawn) | inactive |  |
| O=C(/C=C/C(=O)N1CC(CN2CCN(c3cccc4c3C(=O)N(C3CCC(=O)NC3=O)C4=O)CC2)C1)Nc1ccc(NC(=O)c2ccc([N+](=O)[O-])o2)cc1 (stereo not drawn) | 43.6% | solubility [2]: 6.485 µg/mL (≈ 8.78 µM) |
| Cc1ncsc1-c1ccc(CNC(=O)[C@@H]2C[C@@H](O)CN2C(=O)[C@@H](NC(=O)CCC(=O)NCCCNC(=O)c2cccc(S(=O)(=O)n3cc(C(=O)NCCCCCC(=O)Oc4ccc(NC(=O)c5ccc(-c6ccccc6)cc5)cc4NS(=O)(=O)c4ccc(F)cc4)ccc3=O)c2)C(C)(C)C)cc1 |  | DC50 [3]: 530 nM |
| O=C(/C=C/C(=O)N1CCN(CC2CCN(c3ccc4c(c3)C(=O)N(C3CCC(=O)NC3=O)C4=O)CC2)CC1)Nc1ccc(NC(=O)c2ccc([N+](=O)[O-])o2)cc1 (stereo not drawn) | 63.6% |  |
| O=C(/C=C/C(=O)Nc1ccc(NC(=O)c2ccc([N+](=O)[O-])o2)cc1)NCCCCCCNc1cccc2c1C(=O)N(C1CCC(=O)NC1=O)C2=O (stereo not drawn) | 59.2% | Activity [4]: 1.3%; CLint [5]: 1490 mL/min/g; solubility [2]: 0.854 µg/mL (≈ 1.22 µM); half-life [6]: 1.41 min |
| O=C1CCC(N2C(=O)c3cccc(N4CCN(CC5CN(C(=O)COCC(=O)Nc6ccc(NC(=O)c7ccc([N+](=O)[O-])o7)cc6)C5)CC4)c3C2=O)C(=O)N1 (stereo not drawn) | inactive |  |
| O=C(/C=C/C(=O)N1CCN(CC2CCN(c3ccc4c(c3)C(=O)N(C3CCC(=O)NC3=O)C4=O)C2)CC1)Nc1ccc(NC(=O)c2ccc([N+](=O)[O-])o2)cc1 (stereo not drawn) | 73.6% |  |
| O=C(/C=C/C(=O)N1CCN(CC2CCCN2c2ccc3c(c2)C(=O)N(C2CCC(=O)NC2=O)C3=O)CC1)Nc1ccc(NC(=O)c2ccc([N+](=O)[O-])o2)cc1 (stereo not drawn) | 72.3% |  |
| CCn1nc(C)cc1C(=O)Nc1nc2cc(C(=O)NCCCCCCCCC(=O)N[C@@H](C(=O)N3C[C@H](O)C[C@H]3C(=O)NCc3ccc(-c4scnc4C)cc3)C(C)(C)C)cc(OC)c2n1C/C=C/Cn1c(NC(=O)c2cc(C)nn2CC)nc2cc(C(N)=O)cc(OCCCN3CCOCC3)c21 |  | DC50 [3]: 227 nM |
| O=C(/C=C/C(=O)N1CCC(CN2CCN(c3cccc4c3C(=O)N(C3CCC(=O)NC3=O)C4=O)CC2)CC1)Nc1ccc(NC(=O)c2ccc([N+](=O)[O-])o2)cc1 (stereo not drawn) | 71.1% | solubility [2]: 1.562 µg/mL (≈ 2.04 µM) |
| O=C(/C=C/C(=O)N1CCN(CC2CCCN2c2cccc3c2C(=O)N(C2CCC(=O)NC2=O)C3=O)CC1)Nc1ccc(NC(=O)c2ccc([N+](=O)[O-])o2)cc1 (stereo not drawn) | 77.7% | solubility [2]: 2.872 µg/mL (≈ 3.82 µM) |
| O=C(/C=C/C(=O)N1CC(CN2CCN(c3ccc4c(c3)C(=O)N(C3CCC(=O)NC3=O)C4=O)CC2)C1)Nc1ccc(NC(=O)c2ccc([N+](=O)[O-])o2)cc1 (stereo not drawn) | inactive |  |
| O=C1CCC(N2C(=O)c3cccc(N4CCN(CC5CCN(C(=O)COCC(=O)Nc6ccc(NC(=O)c7ccc([N+](=O)[O-])o7)cc6)CC5)CC4)c3C2=O)C(=O)N1 (stereo not drawn) | 32.6% |  |
| O=C(/C=C/C(=O)N1CCC(CN2CCN(c3ccc4c(c3)C(=O)N(C3CCC(=O)NC3=O)C4=O)CC2)CC1)Nc1ccc(NC(=O)c2ccc([N+](=O)[O-])o2)cc1 (stereo not drawn) | 52.3% |  |
| O=C(/C=C/C(=O)N1CCN(c2cccc3c2C(=O)N(C2CCC(=O)NC2=O)C3=O)CC1)Nc1ccc(NC(=O)c2ccc([N+](=O)[O-])o2)cc1 (stereo not drawn) | 20.3% |  |

Second part, led by results:

| Activity [1] | Structure (SMILES) | other results |
| --- | --- | --- |
| 40.5% | O=C1CCC(N2C(=O)c3cccc(N4CCC(N5CCN(C(=O)CCCC(=O)Nc6ccc(NC(=O)c7ccc([N+](=O)[O-])o7)cc6)CC5)C4)c3C2=O)C(=O)N1 (stereo not drawn) |  |
| inactive | O=C1CCC(N2C(=O)c3cccc(N4CCC(N5CCN(C(=O)COCC(=O)Nc6ccc(NC(=O)c7ccc([N+](=O)[O-])o7)cc6)CC5)C4)c3C2=O)C(=O)N1 (stereo not drawn) |  |
| inactive | O=C1CCC(N2C(=O)c3cccc(N4CCN(CC5CCN(C(=O)CCCC(=O)Nc6ccc(NC(=O)c7ccc([N+](=O)[O-])o7)cc6)CC5)CC4)c3C2=O)C(=O)N1 (stereo not drawn) |  |
| inactive | O=C1CCC(N2C(=O)c3cccc(N4CCC(CN5CCN(C(=O)COCC(=O)Nc6ccc(NC(=O)c7ccc([N+](=O)[O-])o7)cc6)CC5)C4)c3C2=O)C(=O)N1 (stereo not drawn) |  |
| 58% | O=C(/C=C/C(=O)N1CCN(C2CCN(c3cccc4c3C(=O)N(C3CCC(=O)NC3=O)C4=O)C2)CC1)Nc1ccc(NC(=O)c2ccc([N+](=O)[O-])o2)cc1 (stereo not drawn) | solubility [2]: 6.098 µg/mL (≈ 8.25 µM) |
| 40.7% | O=C1CCC(N2C(=O)c3cccc(N4CCN(CC5CN(C(=O)CCC(=O)Nc6ccc(NC(=O)c7ccc([N+](=O)[O-])o7)cc6)C5)CC4)c3C2=O)C(=O)N1 (stereo not drawn) |  |
| inactive | O=C(/C=C/C(=O)N1CCC(N2CCN(c3cccc4c3C(=O)N(C3CCC(=O)NC3=O)C4=O)CC2)CC1)Nc1ccc(NC(=O)c2ccc([N+](=O)[O-])o2)cc1 (stereo not drawn) |  |
| 44.7% | O=C1CCC(N2C(=O)c3cccc(N4CCC(CN5CCN(C(=O)CCC(=O)Nc6ccc(NC(=O)c7ccc([N+](=O)[O-])o7)cc6)CC5)C4)c3C2=O)C(=O)N1 (stereo not drawn) |  |
| inactive | O=C1CCC(N2C(=O)c3cccc(N4CCN(CC5CCN(C(=O)CCC(=O)Nc6ccc(NC(=O)c7ccc([N+](=O)[O-])o7)cc6)CC5)CC4)c3C2=O)C(=O)N1 (stereo not drawn) |  |
| inactive | O=C1CCC(N2C(=O)c3cccc(N4CCC(N5CCN(C(=O)CCC(=O)Nc6ccc(NC(=O)c7ccc([N+](=O)[O-])o7)cc6)CC5)C4)c3C2=O)C(=O)N1 (stereo not drawn) |  |
| 36.3% | O=C1CCC(N2C(=O)c3cccc(N4CCC(CN5CCN(C(=O)CCCC(=O)Nc6ccc(NC(=O)c7ccc([N+](=O)[O-])o7)cc6)CC5)C4)c3C2=O)C(=O)N1 (stereo not drawn) |  |
| inactive | O=C1CCC(N2C(=O)c3cccc(N4CCN(CC5CN(C(=O)CCCC(=O)Nc6ccc(NC(=O)c7ccc([N+](=O)[O-])o7)cc6)C5)CC4)c3C2=O)C(=O)N1 (stereo not drawn) |  |
| 30.3% | O=C(/C=C/C(=O)N1CC(N2CCN(c3cccc4c3C(=O)N(C3CCC(=O)NC3=O)C4=O)CC2)C1)Nc1ccc(NC(=O)c2ccc([N+](=O)[O-])o2)cc1 (stereo not drawn) |  |
| 25.3% | O=C(/C=C/C(=O)N1CCN(C2CCN(c3cccc4c3C(=O)N(C3CCC(=O)NC3=O)C4=O)CC2)CC1)Nc1ccc(NC(=O)c2ccc([N+](=O)[O-])o2)cc1 (stereo not drawn) |  |
